Experimental data taken from patent US20260055126A1, “SMALL MOLECULE COMPOUNDS WITH PHOSPHORYLATED ARYL STRUCTURES AND USE THEREOF” (HANGZHOU PHECDAMED CO., LTD., priority 2022, published 2026).

Assays:
[1] = In vitro liver microsome stability, rat; format: in vitro ADME; settings: rat liver microsomes
Procedure: (§1) Testosterone is selected as the positive reference compound. The specific method is as follows:
(§2) Preparing 0.1MK3 PO4 (pH 7.4) buffer and 3×NADPH stock solution (6 mM, 5 mg/mL), and preheating in a 37° C. water bath; preparing spiking solution of tested compound and control compound: adding 5 μL compound stock solution (10 mM) to 95 μL acetonitrile; preparing 1.5 μM spiking solution in microsomes (0.75 mg/mL): add 1.5 μL spiking solution and 18.75 μL liver microsome solution (20 mg/mL) to 479.75 μL K3PO4 buffer; taking 30 μL spiking solution in microsomes and adding it to the multiwell plate, and incubating at 37° C. for 5 min; adding 15 μL of NADPH stock solution to each well, starting to react, and timing; adding 150 μL of acetonitrile solution containing IS at 0 min, 5 min, 15 min, 30 min, 45 min and 60 min respectively to terminate the reaction; after 10 min of oscillation, centrifuging the reaction at 6000 rpm for 15 min; taking 80 μL of supernatant from each well for LC/MS detection and calculating Ti/2.
(§3) Liver microsomes of mice, rats, dogs, and human used in the experiment are purchased from Xenotech.

[2] = Mouse plasma pharmacokinetic test; format: in vivo, CD-1 mice
Source text: In this example, different compounds are used to perform a mouse pharmacokinetic experiment, and the specific steps are as follows: Animal information: CD-1 mice, male, about 20 g, purchase from Beijing Weitonglihua Experimental Animal Technology Co., Ltd.
Animal dietary status: Animals are not fasted before administration and allowed to drink water freely.
Compound preparation method: for intragastric administration (IG)(G1 group), preparing with 0.5% CMC-Na, and for intravenous injection(IV) (G2 group), preparing 5% DMSO+30% PEG400+65% water. […]
Sampling time points of G1 group: 8 points in total, namely 10 min, 30 min, 1 h, 2 h, 4 h, 6 h, 8 h and 24 h after administration, among them, animals G1M01-G1M03 are sampled at 3 time points, namely 10 min, 1 h and 6 h; animals G1M04-G1M06 are sampled at 3 time points, namely 30 min, 2 h and 8 h; animals G1M07-G1M09 are sampled at 2 time points, namely 4 h and 24 h.
Sampling time points of G2 group: 9 points in total, namely 5 min, 10 min, 30 min, 1 h, 2 h, 4 h, 6 h, 8 h, 24 h after administration. It is recommended that animals G2M01-G2M03 are sampled at 3 time points, namely 5 min, 1 h, and 6 h; animals G2M04-G2M06 are sampled at 3 time points, namely 10 min, 2 h, and 8 h; animals G2M07-G2M09 are sampled at 3 time points, namely 30 min, 4 h, and 24 h.
Sample collection: On the day of the experiment, collecting approximately 0.1 mL of whole blood samples at each preset time point and placing in EDTA-K2 anticoagulant tubes.
Sample processing: Within 30 minutes after whole blood sample collection, centrifuging at 4° C., 12,000 rpm for 5 minutes to separate plasma, collecting the upper plasma sample into a sample tube, and freezing the plasma sample in a −10˜−30° C. refrigerator within 30 minutes and transferring to a −60˜−90° C. refrigerator within 24 hours.
Sample testing and data processing: LC/MS/MS testing, WinNonlin for fitting and pharmacokinetic parameter calculation.

[3] = In vitro liver microsome stability, human; format: in vitro ADME; settings: human liver microsomes
Procedure: as §1, §2, §3

[4] = target: recombinant TEAD3 protein (218-435, Uniprot ID: Q99594) (Homo sapiens (Human), UniProt Q99594); assay: Thermal shift assay (protein melting point curve), TEAD3; format: binding; settings: 10 μM TEAD protein, 50 μM test compound
[5] = test system: recombinant TEAD1 protein (194-411, Uniprot ID: P28347); assay: Thermal shift assay (protein melting point curve), TEAD1; format: binding; set-up: key to the marks not given beside the values; settings: 10 μM TEAD protein, 50 μM test compound

recombinant TEAD3 protein (218-435, Uniprot ID: Q99594), sequence (Q99594 218-435): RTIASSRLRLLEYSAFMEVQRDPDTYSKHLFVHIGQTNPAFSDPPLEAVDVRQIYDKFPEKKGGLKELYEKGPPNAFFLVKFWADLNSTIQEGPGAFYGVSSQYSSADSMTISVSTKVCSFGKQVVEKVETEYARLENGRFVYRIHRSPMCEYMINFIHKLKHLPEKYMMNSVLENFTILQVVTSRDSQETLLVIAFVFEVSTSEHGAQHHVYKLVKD

- rat half-life [1]: 0.8 h
- F % ([2]; CD-1 mice, IG 10 mg/kg vs IV 1 mg/kg): 51.9%
- AUC0-t ([2]; CD-1 mice, single IG 10 mg/kg): 4662 ng·h/mL
- AUC0-∞ ([2]; CD-1 mice, single IG 10 mg/kg): 5688 ng·h/mL
- Cmax ([2]; CD-1 mice, single IG 10 mg/kg): 1477 ng/mL
- MRT0-t ([2]; CD-1 mice, single IG 10 mg/kg): 2.84 h
- MRT0-∞ ([2]; CD-1 mice, single IG 10 mg/kg): 4.66 h
- Tmax ([2]; CD-1 mice, single IG 10 mg/kg): 0.5 h
- t1/2 ([2]; CD-1 mice, single IG 10 mg/kg): 3.46 h
- AUC0-t ([2]; CD-1 mice, single IV 1 mg/kg): 899 ng·h/mL
- AUC0-∞ ([2]; CD-1 mice, single IV 1 mg/kg): 924 ng·h/mL
- CL ([2]; CD-1 mice, single IV 1 mg/kg): 18.03 mL/min/kg
- Cmax ([2]; CD-1 mice, single IV 1 mg/kg): 598 ng/mL
- MRT0-t ([2]; CD-1 mice, single IV 1 mg/kg): 1.55 h
- MRT0-∞ ([2]; CD-1 mice, single IV 1 mg/kg): 1.80 h
- Vss ([2]; CD-1 mice, single IV 1 mg/kg): 1.947 L/kg
- t1/2 ([2]; CD-1 mice, single IV 1 mg/kg): 1.94 h
- pharmacokinetic properties in mice ([2]; mice): good pharmacokinetic properties
- human half-life [3]: 1.78 h
- Δ T m (TEAD3) [4]: +
SMILES: CP(C)(=O)c1ccc(NCc2ccc(C(F)(F)F)cc2)c(-c2nccc(OC3COC3)n2)c1 [Compound 17]
- Δ T m (TEAD1) [5]: ++++
